These compounds were tested against T1, TNKS2 (Homo sapiens, UniProt Q9H2K2) (assay: TNKS2 Assay B (auto-parsylation, [3H]-NAD+ SPA)). Details: 6 nM TNKS2, auto-parsylation, over night at room temperature.
T1 construct: purchased BPS Bioscience, San Diego, USA 80572 (TNKS2 Histone Ribosylation Assay Kit)
T1 sequence (Q9H2K2 1-1166): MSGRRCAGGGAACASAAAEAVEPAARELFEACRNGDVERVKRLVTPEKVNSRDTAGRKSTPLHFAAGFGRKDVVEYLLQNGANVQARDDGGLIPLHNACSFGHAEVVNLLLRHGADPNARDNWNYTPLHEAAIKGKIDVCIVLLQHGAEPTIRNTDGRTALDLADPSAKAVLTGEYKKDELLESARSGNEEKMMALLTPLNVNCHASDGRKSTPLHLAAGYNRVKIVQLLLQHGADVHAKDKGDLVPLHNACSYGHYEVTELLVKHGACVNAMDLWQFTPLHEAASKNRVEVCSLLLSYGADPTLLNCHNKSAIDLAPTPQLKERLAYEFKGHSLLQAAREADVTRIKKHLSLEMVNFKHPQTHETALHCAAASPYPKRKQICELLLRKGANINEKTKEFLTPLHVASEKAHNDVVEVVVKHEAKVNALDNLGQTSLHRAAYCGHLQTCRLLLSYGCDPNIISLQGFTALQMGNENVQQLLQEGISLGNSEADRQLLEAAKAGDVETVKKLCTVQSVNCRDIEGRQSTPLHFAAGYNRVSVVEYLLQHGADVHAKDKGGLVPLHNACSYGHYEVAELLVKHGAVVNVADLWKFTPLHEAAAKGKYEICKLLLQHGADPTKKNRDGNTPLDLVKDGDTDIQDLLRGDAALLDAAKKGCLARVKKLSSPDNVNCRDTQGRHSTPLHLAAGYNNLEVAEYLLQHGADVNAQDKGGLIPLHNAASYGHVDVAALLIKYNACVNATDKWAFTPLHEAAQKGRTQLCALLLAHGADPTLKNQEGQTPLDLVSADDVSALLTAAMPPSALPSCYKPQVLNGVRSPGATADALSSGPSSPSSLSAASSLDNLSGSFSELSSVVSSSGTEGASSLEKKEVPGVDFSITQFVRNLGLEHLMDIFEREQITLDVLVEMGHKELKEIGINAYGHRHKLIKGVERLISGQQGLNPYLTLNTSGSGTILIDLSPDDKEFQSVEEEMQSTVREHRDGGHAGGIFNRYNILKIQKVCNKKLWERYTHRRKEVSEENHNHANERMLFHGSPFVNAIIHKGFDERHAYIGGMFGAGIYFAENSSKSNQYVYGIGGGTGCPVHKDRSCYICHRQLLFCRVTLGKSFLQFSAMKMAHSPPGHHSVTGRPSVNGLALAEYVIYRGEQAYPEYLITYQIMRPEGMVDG
Format: biochemical

IC50 | Compound
1.7 nM | CN1CC2(C1)CN(C(=O)c1nc[nH]c1C(=O)N[C@H]1CC[C@@]3(CCN(c4ccc(F)cc4Cl)C3=O)CC1)C2 [Example 185, N-[(trans)-2-(2-chloro-4-fluorophenyl)-1-oxo-2-azaspiro[4.5]dec-8-yl]-4-[(6-methyl-2,6-diazaspiro[3.3]hept-2-yl)carbonyl]-1H-imidazole-5-carboxamide]
6.5 nM | Cc1ccnc2c(C(=O)N[C@H]3CC[C@@]4(CCN(c5ccc(F)cc5Cl)C4=O)CC3)cnn12 [Example 222, N-[(trans)-2-(2-chloro-4-fluorophenyl)-1-oxo-2-azaspiro[4.5]dec-8-yl]-7-methylpyrazolo[1,5-a]pyrimidine-3-carboxamide]
> 10000 nM | O=C(N[C@H]1CC[C@H](C(=O)Nc2ccc(F)cc2Cl)CC1)c1cnc2ccccn12 [Example 206, N-{trans-4-[(2-chloro-4-fluorophenyl)carbamoyl]cyclohexyl}imidazo[1,2-a]pyridine-3-carboxamide]

From US20180148418A1, “AMIDO-SUBSTITUTED CYCLOHEXANE DERIVATIVES” (Bayer Pharma Aktiengesellschaft, priority 2015, published 2018)
